From ChEMBL document CHEMBL5252648, “Design, synthesis and bioactivity evaluation of a series of quinazolinone derivatives as potent PI3Kγ antagonist” (Bioorg Med Chem, 2023)
Calls of active or inactive are those of the source. The rule behind the calls is not given here.

Assays:
[1] = test system: Jurkat; test: Induction of apoptosis against human Jurkat cells assessed as early apoptotic cells at 1 uM measured for 24 hrs by Annexin V-FITC/propidium iodide staining based flow cytometry (reference value: 5.76%); assay type: functional
[2] = test system: RAW264.7; test: Cytotoxicity against mouse RAW264.7 cells assessed as reduction in cell viability incubated for 24 hrs by CCK-8 assay; assay type: functional, cell-based; settings: RAW264.7, 24 h
[3] = test system: THP-1; test: Induction of apoptosis against human THP-1 cells assessed as viable cells at 10 uM measured for 24 hrs by Annexin V-FITC/propidium iodide staining based flow cytometry (reference value: 85.6%); assay type: functional; settings: read-out: Activity
[4] = test system: THP-1; test: Induction of apoptosis against human THP-1 cells assessed as necrotic cells at 10 uM measured for 24 hrs by Annexin V-FITC/propidium iodide staining based flow cytometry (reference value: 0.316%); assay type: functional
[5] = test system: RAW264.7; test: Inhibition of AKT phosphorylation in mouse RAW264.7 cells incubated for 1 to 12 hrs by Western blot analysis relative to control; assay type: cell-based; settings: dose 0.1-10 µM, time 1-12 hrs
[6] = test system: Jurkat; test: Downregulation of phosphorylated AKT protein expression in human Jurkat cells measured for 3 hrs; assay type: functional, cell-based; settings: dose 0.1-10 µM
[7] = test system: THP-1; test: Induction of apoptosis against human THP-1 cells assessed as early apoptotic cells at 0.1 uM measured for 24 hrs by Annexin V-FITC/propidium iodide staining based flow cytometry (reference value: 10.3%); assay type: functional
[8] = test system: Jurkat; test: Induction of apoptosis against human Jurkat cells assessed as viable cells at 0.1 uM measured for 24 hrs by Annexin V-FITC/propidium iodide staining based flow cytometry (reference value: 94.2 %); assay type: functional; settings: read-out: Activity
[9] = test system: A549; test: Cytotoxicity against human A549 cells assessed as reduction in cell viability incubated for 24 hrs by CCK-8 assay; assay type: functional, cell-based; settings: A549, 24 h
[10] = test system: THP-1; test: Induction of apoptosis against human THP-1 cells assessed as late apoptotic cells at 0.1 uM measured for 24 hrs by Annexin V-FITC/propidium iodide staining based flow cytometry (reference value: 3.70%); assay type: functional
[11] = test system: RAW264.7; test: Inhibition of AKT phosphorylation in mouse RAW264.7 cells at 1 uM incubated for 1 to 12 hrs by Western blot analysis relative to control; assay type: cell-based; settings: time 1-12 hrs
[12] = test system: Jurkat; test: Induction of apoptosis against human Jurkat cells assessed as necrotic cells at 0.1 uM measured for 24 hrs by Annexin V-FITC/propidium iodide staining based flow cytometry (reference value: 0.00%); assay type: functional
[13] = test system: Jurkat; test: Induction of apoptosis against human Jurkat cells assessed as viable cells at 1 uM measured for 24 hrs by Annexin V-FITC/propidium iodide staining based flow cytometry (reference value: 94.2 %); assay type: functional; settings: read-out: Activity
[14] = target: T1, Serine/threonine-protein kinase AKT (Homo sapiens) (UniProt P31751+Q9Y243+P31749); test: Inhibition of AKT phosphorylation in human Jurkat cells at 1 uM incubated for 1 to 12 hrs by Western blot analysis relative to control; assay type: cell-based; settings: time 1-12 hrs
[15] = test system: Jurkat; test: Upregulation of phosphorylated ERK1/2 protein expression in human Jurkat cells measured for 3 hrs; assay type: functional, cell-based; settings: dose 0.1-10 µM
[16] = test system: MCF7; test: Cytotoxicity against human MCF7 cells assessed as reduction in cell viability incubated for 24 hrs by CCK-8 assay; assay type: functional, cell-based; settings: MCF7, 24 h
[17] = target: T1, Serine/threonine-protein kinase AKT (Homo sapiens); test: Inhibition of AKT phosphorylation in human THP-1 cells at 1 uM incubated for 1 to 12 hrs by Western blot analysis relative to control; assay type: cell-based; settings: time 1-12 hrs
[18] = test system: THP-1; test: Induction of apoptosis against human THP-1 cells assessed as viable cells at 0.1 uM measured for 24 hrs by Annexin V-FITC/propidium iodide staining based flow cytometry (reference value: 85.6%); assay type: functional; settings: read-out: Activity
[19] = test system: THP-1; test: Induction of apoptosis against human THP-1 cells assessed as necrotic cells at 0.1 uM measured for 24 hrs by Annexin V-FITC/propidium iodide staining based flow cytometry (reference value: 0.316%); assay type: functional
[20] = test system: Jurkat; test: Induction of apoptosis against human Jurkat cells assessed as necrotic cells at 1 uM measured for 24 hrs by Annexin V-FITC/propidium iodide staining based flow cytometry (reference value: 0.00%); assay type: functional
[21] = test system: Jurkat; test: Induction of apoptosis against human Jurkat cells assessed as late apoptotic cells at 10 uM measured for 24 hrs by Annexin V-FITC/propidium iodide staining based flow cytometry (reference value: 0.00%); assay type: functional
[22] = test system: Jurkat; test: Induction of apoptosis against human Jurkat cells assessed as late apoptotic cells at 1 uM measured for 24 hrs by Annexin V-FITC/propidium iodide staining based flow cytometry (reference value: 0.00%); assay type: functional
[23] = test system: Jurkat; test: Upregulation of phosphorylated p38 protein expression in human Jurkat cells measured for 3 hrs; assay type: functional, cell-based; settings: dose 0.1-10 µM
[24] = test system: T47D; test: Cytotoxicity against human T47D cells assessed as reduction in cell viability incubated for 24 hrs by CCK-8 assay; assay type: functional, cell-based
[25] = test system: THP-1; test: Induction of apoptosis against human THP-1 cells assessed as viable cells at 1 uM measured for 24 hrs by Annexin V-FITC/propidium iodide staining based flow cytometry (reference value: 85.6%); assay type: functional; settings: read-out: Activity
[26] = test system: Jurkat; test: Induction of apoptosis against human Jurkat cells assessed as early apoptotic cells at 10 uM measured for 24 hrs by Annexin V-FITC/propidium iodide staining based flow cytometry (reference value: 5.76%); assay type: functional
[27] = Cytotoxicity against mouse L929 cells assessed as reduction in cell viability incubated for 24 hrs by CCK-8 assay; assay type: toxicity, cell-based
[28] = target: Phosphatidylinositol 4,5-bisphosphate 3-kinase catalytic subunit gamma isoform (Homo sapiens, UniProt P48736); test: Antagonist activity at PI3Kgamma (unknown origin) assessed as inhibition rate at 20 nM using PIP2 as substrate in presence of ATP incubated for 30 to 60 mins by ADP-glo based luminescence assay relative to control; settings: filed as antagonist, time 30-60 min
Chain of Phosphatidylinositol 4,5-bisphosphate 3-kinase catalytic subunit gamma isoform (P48736 whole entry, looked up, canonical isoform): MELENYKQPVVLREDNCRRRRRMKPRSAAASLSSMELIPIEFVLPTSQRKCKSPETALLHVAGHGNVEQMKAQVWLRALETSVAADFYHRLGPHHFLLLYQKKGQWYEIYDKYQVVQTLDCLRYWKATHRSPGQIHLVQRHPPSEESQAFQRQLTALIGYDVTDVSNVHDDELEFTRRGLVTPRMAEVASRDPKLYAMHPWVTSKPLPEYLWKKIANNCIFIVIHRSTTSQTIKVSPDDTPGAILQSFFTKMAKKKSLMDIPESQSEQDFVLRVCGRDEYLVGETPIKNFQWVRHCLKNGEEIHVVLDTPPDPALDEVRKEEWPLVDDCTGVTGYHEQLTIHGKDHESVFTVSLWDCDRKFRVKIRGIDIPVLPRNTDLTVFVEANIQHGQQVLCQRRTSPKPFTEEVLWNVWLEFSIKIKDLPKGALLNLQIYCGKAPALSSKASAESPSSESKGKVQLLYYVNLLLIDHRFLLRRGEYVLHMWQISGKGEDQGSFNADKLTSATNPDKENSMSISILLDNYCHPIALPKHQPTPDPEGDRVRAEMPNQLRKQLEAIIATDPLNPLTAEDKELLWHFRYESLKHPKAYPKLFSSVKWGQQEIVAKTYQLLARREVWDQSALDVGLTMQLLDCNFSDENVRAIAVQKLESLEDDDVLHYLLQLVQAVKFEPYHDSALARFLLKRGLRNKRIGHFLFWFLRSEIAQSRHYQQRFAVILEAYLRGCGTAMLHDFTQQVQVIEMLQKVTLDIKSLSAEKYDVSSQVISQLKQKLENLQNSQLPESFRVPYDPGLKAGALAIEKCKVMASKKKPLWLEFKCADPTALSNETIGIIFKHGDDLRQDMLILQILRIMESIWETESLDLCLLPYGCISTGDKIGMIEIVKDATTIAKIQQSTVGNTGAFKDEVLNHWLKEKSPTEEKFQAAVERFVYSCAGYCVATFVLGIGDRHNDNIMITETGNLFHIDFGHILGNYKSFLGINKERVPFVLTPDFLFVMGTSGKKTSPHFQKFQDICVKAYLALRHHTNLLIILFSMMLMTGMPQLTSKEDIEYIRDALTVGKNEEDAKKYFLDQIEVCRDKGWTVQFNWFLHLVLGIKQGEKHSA

T1 sequence (P31749 whole entry, looked up): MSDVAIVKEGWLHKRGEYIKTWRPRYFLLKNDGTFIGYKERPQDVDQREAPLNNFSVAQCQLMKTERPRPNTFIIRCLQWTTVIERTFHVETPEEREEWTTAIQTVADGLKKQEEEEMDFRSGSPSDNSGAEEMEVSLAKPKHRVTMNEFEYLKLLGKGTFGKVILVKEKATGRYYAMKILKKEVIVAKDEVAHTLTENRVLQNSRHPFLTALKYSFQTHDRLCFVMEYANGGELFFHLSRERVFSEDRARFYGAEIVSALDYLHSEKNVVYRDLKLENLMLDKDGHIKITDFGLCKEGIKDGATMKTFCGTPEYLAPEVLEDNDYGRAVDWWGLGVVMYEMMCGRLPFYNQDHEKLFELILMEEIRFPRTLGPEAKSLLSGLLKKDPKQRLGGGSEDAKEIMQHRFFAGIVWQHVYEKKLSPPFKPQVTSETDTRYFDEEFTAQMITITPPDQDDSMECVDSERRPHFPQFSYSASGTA
T1 sequence (P31751 whole entry, looked up): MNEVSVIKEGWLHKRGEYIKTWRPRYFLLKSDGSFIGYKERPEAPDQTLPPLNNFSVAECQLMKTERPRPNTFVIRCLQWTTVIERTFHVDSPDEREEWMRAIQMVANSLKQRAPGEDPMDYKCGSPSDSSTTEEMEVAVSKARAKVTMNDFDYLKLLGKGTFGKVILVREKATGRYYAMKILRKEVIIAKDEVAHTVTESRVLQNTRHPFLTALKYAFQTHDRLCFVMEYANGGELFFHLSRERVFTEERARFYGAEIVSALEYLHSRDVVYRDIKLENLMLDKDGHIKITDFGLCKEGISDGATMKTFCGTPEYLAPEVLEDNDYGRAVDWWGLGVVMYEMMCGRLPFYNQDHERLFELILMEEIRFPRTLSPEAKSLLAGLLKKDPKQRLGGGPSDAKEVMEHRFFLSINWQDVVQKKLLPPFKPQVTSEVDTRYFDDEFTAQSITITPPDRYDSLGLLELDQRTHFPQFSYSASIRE
T1 sequence (Q9Y243 whole entry, looked up): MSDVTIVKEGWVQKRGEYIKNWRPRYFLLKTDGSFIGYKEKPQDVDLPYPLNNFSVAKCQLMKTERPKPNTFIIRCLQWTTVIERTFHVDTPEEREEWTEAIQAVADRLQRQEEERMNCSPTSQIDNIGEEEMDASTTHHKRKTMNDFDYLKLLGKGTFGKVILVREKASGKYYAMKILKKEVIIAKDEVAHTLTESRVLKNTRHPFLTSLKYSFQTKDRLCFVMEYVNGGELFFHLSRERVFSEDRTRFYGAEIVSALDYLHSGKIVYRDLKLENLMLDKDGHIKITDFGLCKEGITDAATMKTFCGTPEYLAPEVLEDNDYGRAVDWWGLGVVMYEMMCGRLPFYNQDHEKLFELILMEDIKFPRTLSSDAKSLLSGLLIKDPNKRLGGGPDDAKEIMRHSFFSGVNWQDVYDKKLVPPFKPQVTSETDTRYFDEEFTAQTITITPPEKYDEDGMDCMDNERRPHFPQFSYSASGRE

For `COc1ccc(C#Cc2cccc3cc(C(C)Nc4ncnc5[nH]cnc45)n(-c4ccccc4)c(=O)c23)cc1` (stereo not drawn), the Activity [1] was 17.7%, the IC50 [2] was 4.54 µM and the viability at 10 µM [3] was 60.7%. The Activity [4] was 0.053%, the inhibition [5] was “Dose-Dependent Effect” and the Activity [6] was “Dose-Dependent Effect”. For the same compound, the Activity [7] was 25.3%, the viability at 0.1 µM [8] was 66.8% and the IC50 [9] was > 100 µM. The Activity [10] was 7.85%, the inhibition [11] was “Active” and the Activity [12] was 0%. The viability at 1 µM [13] was 82.3%, the inhibition [14] was “Active” and the Activity [15] was “Dose-Dependent Effect”. The IC50 [16] was > 100 µM, the inhibition [17] was “Active” and the viability at 0.1 µM [18] was 66.8%. For the same compound, the Activity [19] was 0.125%, the Activity [20] was 0% and the Activity [21] was 0.047%. For the same compound, the Activity [22] was 0.042%, the Activity [23] was “Dose-Dependent Effect” and the IC50 [24] was > 100 µM. The viability at 1 µM [25] was 59.6%, the Activity [26] was 69.7% and the IC50 at 24 h [27] was > 100 µM. It also gave an inhibition [28] of 53%.
